From patent US11213494B2 (priority 2016, dated 2022)

Assays:
AMPA-receptors = assay: Whole-cell patch-clamp recordings of nTS second-order neurons in brainstem slices; assay type: cell-based, mice; conditions: 10 μM in the superfusate
Procedure: Horizontal brainstem slices were prepared from 3- and 5- to 7-week-old Mecp2 Null and Wt male mice. Animals were deeply anesthetized by inhalation of isoflurane and then decapitated. Brains were removed from the skull and placed in low Ca2+, ice-cold artificial CSF (ACSF) containing the following (in mM): 125 NaCl, 3 KCl, 1.2 NaH2PO4, 1 CaCl2, 1.2 MgSO4, 2 MgCl2, 25 NaHCO3, 10 D-glucose, and 0.4 L-ascorbic acid, equilibrated to pH 7.4 with 95% O2/5% CO2, for 2-5 min. […]
Slices were placed into the recording chamber, held in place with nylon-wired grid and superfused with recording ACSF at 30-32° C. at a flow rate of 4-5 ml/min. […] Evoked, spontaneous and miniature EPSCs (eEPSCs, sPSCs, mEPSCs) were recorded from cells meeting this criterion in the whole-cell voltage-clamp configuration at a holding potential of −60 mV. […] To compare intrinsic neuronal excitability between genotypes, action-potential properties and firing frequency in response to current injection (50 pA increments) were recorded in nComm neurons as well. […]
Spontaneous and evoked postsynaptic currents were analyzed with Clampfit and Microsoft Excel. In the analysis of eEPSCs, 20 sweeps were averaged with Clampfit and the resulting eEPSC amplitudes were measured and compared between genotypes at different stimulation intensities. […]

[1] = Body weight and tolerability during LM22A-4 treatment; assay type: in vivo, mice
Procedure: (§1) Respiratory patterns were analyzed at 8, 10, and 12 weeks after birth in unrestrained mice using whole-body plethysmography as described previously. Measurements were taken from quiet breathing periods of at least 5 min total duration, and apneas were defined as pauses in breathing greater than two times the average breath duration calculated for each animal. LM22A-4 treatment. Wt and Het littermates were divided into 4 groups: Wt vehicle-treated (100 μl of 0.9% NaCl, i.p., b.i.d.), Wt drug treated (50 mg/kg LM22A-4 in 0.9% NaCl, i.p., b.i.d.), Het vehicle-treated (100 μl of 0.9% NaCl, i.p., b.i.d.), and Het drug-treated (50 mg/kg LM22A-4 in 0.9% NaCl, i.p., b.i.d.). Each mouse was treated from 8 to 13 weeks of age. Whole-body plethysmography was performed during week 12 and animals were subsequently killed and tissues harvested for TrkB Western blots and BDNF ELISA during week 13.

Mecp2 Het mice = assay type: in vivo; conditions: 50 mg/kg i.p. twice daily for 4 weeks
Procedure: as §1
Comparison of respiratory parameters between Wt and Het animals in the initial phenotyping experiments were performed using unpaired Student's t test. Comparisons among Wt vehicle-treated, Wt drug-treated, Het vehicle-treated, and Het drug-treated groups in the LM22A-4 trials, including plethysmography and Western blots were performed using one-way ANOVA with post hoc Least Significant Difference test (LSD) for intergroup comparisons. Results were considered significant if the p-value was <0.05. Data are presented as the mean±SEM.

in vivo = assay: in vivo; design: species or system mice; conditions: Mecp2^tm1.1Jae heterozygous (Het), mouse, ip, 50 mg/kg, brain tissue concentration (corrected for blood contamination)
Procedure: The brain concentration of LM22A-4 (custom synthesized by Ricerca Biosciences, LLC) was evaluated in Het mice 1 h after a 50 mg/kg intraperitoneal dose using reverse-phase liquid chromatography with triple-quadrupole tandem mass spectrometric (LC-MS/MS) detection. […] Brainstem and forebrain samples were homogenized with a Virsonic 100 ultrasonic homogenizer and prepared for analysis using acetonitrile precipitation by combining one volume of sample with three volumes of acetonitrile. Samples were centrifuged and the resulting supernatant was sampled for analysis using a CTC Leap PAL autosampler (Leap Technologies) and two PerkinElmer series 200 micro pumps. Chromatography was performed at ambient temperature using a 50×2.0 mm inner diameter, 4 μm Synergi Polar-RP analytical column (Phenomenex). The aqueous mobile phase (A) was 4 mM ammonium formate, pH 3.5 and the organic mobile phase (B) was 10:90 (v/v) […] ammonium formate, pH 3.5/acetonitrile. The analyte was eluted with a gradient which changed linearly from 0 to 100% B in 3 min at a flow rate of 300 μl/min. The total run time was 4.5 min and the injection volume was 10 μl. The analyte was detected on a Sciex API 3000 triple-quadrupole mass spectrometer equipped with a TurbolonSpray interface in the positive electrospray ionization mode (Applied Biosystems/MDS). […]

TrkB [2] = assay: TrkB, AKT and ERK phosphorylation assays (Western blot) in pons and medulla; assay type: in vivo, mice; conditions: 50 mg/kg i.p. b.i.d. for 5 weeks
Procedure: The ratios of (1) phospho-TrkB^Y817/TrkB (full-length), phospho-ERK/ERK and phospho-AKT/AKT, (2) phospho-TrkB^Y817/actin, phospho-ERK/actin and phospho-AKT/actin, (3) TrkB (full-length)/actin, ERK/actin and AKT/actin and (4) TrkB (truncated)/actin were measured by Western blot using the ECL Chemiluminescence System (GE Healthcare). Site-specific rabbit monoclonal antiphospho-TrkB^Y817 antibody was obtained from Epitomics and rabbit polyclonal TrkB antibody was obtained from Millipore. Rabbit polyclonal ERK and AKT, mouse monoclonal phospho-ERK and phospho-AKT antibodies were obtained from Cell Signaling Technology. Tissues were homogenized in a lysis buffer (containing, in mM: 20 Tris, pH 8.0, 137 NaCl, 1% Igepal CA-630, 10% glycerol, 1 PMSF, 10 μg/ml aprotinin, 1 μg/ml leupeptin, 500 μM orthovanadate). Lysates were centrifuged at 14,000×g for 10 min, then the supernatant was collected and protein concentration was determined using the BCA Protein Assay Reagent (Pierce).
as §1

TrkB [3] = assay: Synaptic hyperexcitability in brainstem respiratory and autonomic circuits and apneic breathing in RTT mice; assay type: in vivo; conditions: for synaptic hyperexcitability in brainstem respiratory and autonomic circuits: acute

Molecule | effect on sPSCs (AMPA-receptors) | reduction of eEPSC amplitudes (AMPA-receptors; n=10) [%] | effect on body weight ([1]; Wt or Het mice, 50 mg/kg i.p. b.i.d. throughout the treatment period) | tolerability of daily treatment ([1]; heterozygous female Mecp2 mutant mice) | percentage of apneic animals (Mecp2 Het mice) | Te (expiratory time) compared with Wt (Mecp2 Het mice; 12-week-old Het mice) | Ttot (total breath duration) compared with Wt (Mecp2 Het mice; 12-week-old Het mice) | breathing frequency compared with Wt (Mecp2 Het mice; 12-week-old Het mice) | respiratory function, drug- vs vehicle-treated Wt mice (Mecp2 Het mice; Wt mice) | concentration at 1 h (in vivo; brainstem) [nM] | concentration at 1 h (in vivo; forebrain) [nM] | deficits in TrkB phosphorylation (p-TrkBY817/TrkB, p-TrkBY817/actin) (TrkB [2]; pons and medulla, 13-week-old Het mice) | decreases in p-AKT/AKT and p-AKT/actin (TrkB [2]; pons, Het mice) | effect of drug treatment on level of p-ERK/ERK (TrkB [2]; pons, Wt and Het mice) | levels of p-TrkB/TrkB and p-TrkB/actin vs wild-type controls (TrkB [2]; pons, drug-treated Het mice) | apneic breathing in vivo (TrkB [3]) | synaptic hyperexcitability in brainstem respiratory and autonomic circuits (TrkB [3])
N#Cc1cc2c(cc1[N+](=O)[O-])=NC(=O)C(=O)N=2 [6-cyano-7-nitroquinoxaline-2,3-dione] | completely abolished | 92.2±1.4 | – | – | – | – | – | – | – | – | – | – | – | – | – | – | –
O=C(NCCO)c1cc(C(=O)NCCO)cc(C(=O)NCCO)c1 [LM22A-4, N,N′,N″Tris(2-hydroxyethyl)-1,3,5-benzenetricarboxamide] | – | – | no effect | well tolerated | unaffected | not significantly different | not significantly different | not significantly different | no significant differences | 2.9 | 4.1 | completely reversed | reversed | no significant effect | significantly higher | eliminate | acutely reverse
BDNF: exogenous brain-derived neurotrophic factor, secreted protein, ligand of TrkB (protein, UniProt P23560 19-247, looked up) Neurotrophic factor BDNF …: APMKEANIRGQGGLAYPGVRTHGTLESVNGPKAGSRGLTSLADTFEHVIEELLDEDQKVRPNEENNKDADLYTSRVMLSSQVPLEPPLLFLLEEYKNYLDAANMSMRVRRHSDPARRGELSVCDSISEWVTAADKKTAVDMSGGTVTVLEKVPVSKGQLKQYFYETKCNPMGYTKEGCRGIDKRHWNSQCRTTQSYVRALTMDSKKRIGWRFIRIDTSCVCTLTIKRGR | – | – | – | – | – | – | – | – | – | – | – | – | – | – | – | eliminate | acutely reverse
